Laboratory results published in ChEMBL document CHEMBL5303766, “Data for DCP probe FHT-2344” (2022).
Calls of active or inactive are those of the source. The calls are words filed in the database; no cut-off is given here.

Key:
[1] = molecular target: Tyrosine-protein kinase ABL1 (Homo sapiens) (UniProt P00519); test: ABL1 SGC Tm panel (DSF); conditions: for ΔTm: Compound concentration 10.0 uM
[2] = molecular target: T1, Serine/threonine-protein kinase Nek1 (Homo sapiens) (UniProt Q96PY6); test: NEK1 SGC Tm panel (DSF); conditions: for ΔTm: Compound concentration 10.0 uM
T1 sequence (whole entry): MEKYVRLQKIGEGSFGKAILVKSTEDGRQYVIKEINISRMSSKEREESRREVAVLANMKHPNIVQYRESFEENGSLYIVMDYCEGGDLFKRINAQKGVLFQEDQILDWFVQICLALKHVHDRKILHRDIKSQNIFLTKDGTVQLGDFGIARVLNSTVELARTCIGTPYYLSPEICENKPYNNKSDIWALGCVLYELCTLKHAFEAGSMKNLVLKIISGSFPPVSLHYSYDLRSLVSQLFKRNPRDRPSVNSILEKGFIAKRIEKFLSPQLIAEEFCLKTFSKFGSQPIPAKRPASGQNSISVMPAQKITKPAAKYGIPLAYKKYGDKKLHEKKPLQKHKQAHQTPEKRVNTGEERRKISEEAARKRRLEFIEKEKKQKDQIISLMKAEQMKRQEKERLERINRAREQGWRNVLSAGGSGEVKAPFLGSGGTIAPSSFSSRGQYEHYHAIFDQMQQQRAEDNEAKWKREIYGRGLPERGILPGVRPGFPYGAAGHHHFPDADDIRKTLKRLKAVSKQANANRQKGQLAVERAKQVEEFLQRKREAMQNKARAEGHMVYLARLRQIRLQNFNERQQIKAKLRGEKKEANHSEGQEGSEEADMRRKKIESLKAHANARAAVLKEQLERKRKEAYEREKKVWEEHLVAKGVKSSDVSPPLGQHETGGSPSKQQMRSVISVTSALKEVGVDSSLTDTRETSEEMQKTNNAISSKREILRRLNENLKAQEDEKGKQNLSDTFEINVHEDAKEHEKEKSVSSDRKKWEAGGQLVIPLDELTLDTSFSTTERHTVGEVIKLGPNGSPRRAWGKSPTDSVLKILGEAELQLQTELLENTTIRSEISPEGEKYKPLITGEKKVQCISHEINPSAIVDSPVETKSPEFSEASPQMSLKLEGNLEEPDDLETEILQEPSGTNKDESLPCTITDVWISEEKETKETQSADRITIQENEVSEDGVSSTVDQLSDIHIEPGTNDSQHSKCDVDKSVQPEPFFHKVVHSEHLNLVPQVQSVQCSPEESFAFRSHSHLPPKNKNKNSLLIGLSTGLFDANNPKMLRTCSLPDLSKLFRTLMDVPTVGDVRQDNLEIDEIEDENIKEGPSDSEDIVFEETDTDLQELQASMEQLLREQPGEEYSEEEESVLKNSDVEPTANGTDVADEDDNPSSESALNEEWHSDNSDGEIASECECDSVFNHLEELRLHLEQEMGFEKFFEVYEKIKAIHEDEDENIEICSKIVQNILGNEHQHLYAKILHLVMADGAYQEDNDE

[3] = molecular target: D(2) dopamine receptor (Homo sapiens) (UniProt P14416); conditions: Compound concentration 10.0 uM
[4] = molecular target: Cyclin-dependent kinase-like 1 (Homo sapiens) (UniProt Q00532); test: CDKL1 SGC Tm panel (DSF); conditions: for ΔTm: Compound concentration 10.0 uM
Cyclin-dependent kinase-like 1 (Homo sapiens), sequence (Q00532 whole entry): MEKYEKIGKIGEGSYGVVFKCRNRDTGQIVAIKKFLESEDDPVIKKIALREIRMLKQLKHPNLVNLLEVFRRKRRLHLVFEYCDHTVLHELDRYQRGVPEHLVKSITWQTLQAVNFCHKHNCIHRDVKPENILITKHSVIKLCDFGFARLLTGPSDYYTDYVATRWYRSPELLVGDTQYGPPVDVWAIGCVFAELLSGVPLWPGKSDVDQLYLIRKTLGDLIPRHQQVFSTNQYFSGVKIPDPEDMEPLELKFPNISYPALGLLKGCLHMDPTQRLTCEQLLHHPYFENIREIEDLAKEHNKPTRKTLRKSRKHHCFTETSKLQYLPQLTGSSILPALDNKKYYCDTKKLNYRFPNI

[5] = molecular target: D(1A) dopamine receptor (Homo sapiens) (UniProt P21728); conditions: Compound concentration 10.0 uM
D(1A) dopamine receptor (Homo sapiens), sequence (P21728 whole entry): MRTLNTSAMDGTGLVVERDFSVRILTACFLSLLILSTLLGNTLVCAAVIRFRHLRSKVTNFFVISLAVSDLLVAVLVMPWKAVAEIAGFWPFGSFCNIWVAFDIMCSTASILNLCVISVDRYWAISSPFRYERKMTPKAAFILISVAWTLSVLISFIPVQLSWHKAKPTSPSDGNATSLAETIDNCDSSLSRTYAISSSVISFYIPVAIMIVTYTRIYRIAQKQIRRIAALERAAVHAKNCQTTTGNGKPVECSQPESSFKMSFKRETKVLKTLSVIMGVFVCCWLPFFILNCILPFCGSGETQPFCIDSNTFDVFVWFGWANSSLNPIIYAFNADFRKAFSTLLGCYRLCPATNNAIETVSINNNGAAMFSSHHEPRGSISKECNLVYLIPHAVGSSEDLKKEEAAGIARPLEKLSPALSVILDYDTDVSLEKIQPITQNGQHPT

[6] = molecular target: T2, Calcium/calmodulin-dependent protein kinase type IV (Homo sapiens) (UniProt Q16566); test: CAMK4 SGC Tm panel (DSF); conditions: for ΔTm: Compound concentration 10.0 uM
T2 sequence (whole entry): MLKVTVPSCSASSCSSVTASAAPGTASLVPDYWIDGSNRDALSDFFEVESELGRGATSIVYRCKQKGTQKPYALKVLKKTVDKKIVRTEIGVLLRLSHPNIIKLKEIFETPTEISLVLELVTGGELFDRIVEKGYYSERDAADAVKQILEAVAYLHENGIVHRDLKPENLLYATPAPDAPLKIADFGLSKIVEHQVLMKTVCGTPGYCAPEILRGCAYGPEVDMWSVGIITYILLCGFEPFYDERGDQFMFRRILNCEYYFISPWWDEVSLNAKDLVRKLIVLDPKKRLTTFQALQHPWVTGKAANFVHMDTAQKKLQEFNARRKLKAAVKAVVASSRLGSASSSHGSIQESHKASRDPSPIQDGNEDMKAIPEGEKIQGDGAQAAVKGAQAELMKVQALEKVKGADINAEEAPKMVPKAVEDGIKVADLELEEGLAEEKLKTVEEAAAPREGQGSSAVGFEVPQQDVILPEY

[7] = molecular target: D(4) dopamine receptor (Homo sapiens) (UniProt P21917); conditions: Compound concentration 10.0 uM
D(4) dopamine receptor (Homo sapiens), sequence (P21917 whole entry): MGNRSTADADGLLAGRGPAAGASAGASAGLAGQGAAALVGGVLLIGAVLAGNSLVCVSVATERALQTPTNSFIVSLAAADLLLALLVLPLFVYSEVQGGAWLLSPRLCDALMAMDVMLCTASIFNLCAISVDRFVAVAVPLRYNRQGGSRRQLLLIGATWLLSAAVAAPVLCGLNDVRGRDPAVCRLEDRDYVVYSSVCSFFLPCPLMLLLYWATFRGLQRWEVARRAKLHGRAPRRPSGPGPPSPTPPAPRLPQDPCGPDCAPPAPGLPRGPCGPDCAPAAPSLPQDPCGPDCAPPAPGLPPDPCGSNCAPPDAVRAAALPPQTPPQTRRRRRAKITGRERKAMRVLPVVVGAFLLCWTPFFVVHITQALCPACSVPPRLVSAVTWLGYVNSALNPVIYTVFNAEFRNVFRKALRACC

[8] = molecular target: SWI/SNF-related matrix-associated actin-dependent regulator of chromatin subfamily A member 2 (Homo sapiens, UniProt P51531); test: Luciferase reporter assay: SMARCA2 transcriptional activity in a SMARCA4-mutant cell line; type: functional
[9] = molecular target: MAP kinase-activated protein kinase 2 (Homo sapiens) (UniProt P49137); test: MAPKAPK2 SGC Tm panel (DSF); conditions: for ΔTm: Compound concentration 10.0 uM
MAP kinase-activated protein kinase 2 (Homo sapiens), sequence (P49137 whole entry, looked up): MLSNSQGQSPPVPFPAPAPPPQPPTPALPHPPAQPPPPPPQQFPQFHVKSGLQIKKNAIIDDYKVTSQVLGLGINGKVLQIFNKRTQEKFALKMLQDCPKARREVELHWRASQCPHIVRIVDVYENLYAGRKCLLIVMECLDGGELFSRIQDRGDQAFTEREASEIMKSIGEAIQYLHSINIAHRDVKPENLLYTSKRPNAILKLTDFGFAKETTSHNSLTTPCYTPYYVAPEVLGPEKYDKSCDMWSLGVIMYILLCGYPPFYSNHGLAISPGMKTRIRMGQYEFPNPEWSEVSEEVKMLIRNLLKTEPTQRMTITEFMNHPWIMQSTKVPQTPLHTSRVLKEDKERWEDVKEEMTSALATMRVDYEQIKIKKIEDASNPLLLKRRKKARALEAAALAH

[10] = molecular target: T3, Dual specificity mitogen-activated protein kinase kinase 7 (Homo sapiens) (UniProt O14733); test: MAP2K7 SGC Tm panel (DSF); conditions: for ΔTm: Compound concentration 10.0 uM
T3 sequence (whole entry): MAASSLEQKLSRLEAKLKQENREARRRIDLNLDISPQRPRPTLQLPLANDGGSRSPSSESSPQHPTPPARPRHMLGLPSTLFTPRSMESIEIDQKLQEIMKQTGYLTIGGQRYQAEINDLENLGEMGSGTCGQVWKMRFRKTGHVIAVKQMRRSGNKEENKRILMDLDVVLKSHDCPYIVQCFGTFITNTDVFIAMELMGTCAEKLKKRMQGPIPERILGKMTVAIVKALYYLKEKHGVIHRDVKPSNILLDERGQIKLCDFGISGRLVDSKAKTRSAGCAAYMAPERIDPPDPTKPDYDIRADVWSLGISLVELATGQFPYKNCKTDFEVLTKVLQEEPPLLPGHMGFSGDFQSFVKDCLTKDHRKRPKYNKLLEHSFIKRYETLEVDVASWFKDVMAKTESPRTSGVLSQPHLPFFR

[11] = molecular target: Beta-2 adrenergic receptor (Homo sapiens) (UniProt P07550); conditions: Compound concentration 10.0 uM
Beta-2 adrenergic receptor (Homo sapiens), sequence (P07550 whole entry, looked up): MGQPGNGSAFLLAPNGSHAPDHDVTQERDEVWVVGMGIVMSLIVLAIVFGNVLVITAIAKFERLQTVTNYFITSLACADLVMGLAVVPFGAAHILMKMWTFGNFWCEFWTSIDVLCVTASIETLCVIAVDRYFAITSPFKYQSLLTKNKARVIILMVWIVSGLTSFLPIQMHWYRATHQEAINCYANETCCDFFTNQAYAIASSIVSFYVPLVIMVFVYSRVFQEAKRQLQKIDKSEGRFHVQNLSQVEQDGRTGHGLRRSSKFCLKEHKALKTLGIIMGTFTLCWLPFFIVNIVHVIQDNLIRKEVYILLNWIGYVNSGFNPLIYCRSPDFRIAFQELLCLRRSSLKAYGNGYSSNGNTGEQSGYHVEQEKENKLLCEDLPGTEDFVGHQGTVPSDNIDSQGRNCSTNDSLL

[12] = molecular target: Vascular endothelial growth factor receptor 1 (Homo sapiens) (UniProt P17948); test: FLT1 SGC Tm panel (DSF); conditions: for ΔTm: Compound concentration 10.0 uM
Vascular endothelial growth factor receptor 1 (Homo sapiens), sequence (P17948 whole entry): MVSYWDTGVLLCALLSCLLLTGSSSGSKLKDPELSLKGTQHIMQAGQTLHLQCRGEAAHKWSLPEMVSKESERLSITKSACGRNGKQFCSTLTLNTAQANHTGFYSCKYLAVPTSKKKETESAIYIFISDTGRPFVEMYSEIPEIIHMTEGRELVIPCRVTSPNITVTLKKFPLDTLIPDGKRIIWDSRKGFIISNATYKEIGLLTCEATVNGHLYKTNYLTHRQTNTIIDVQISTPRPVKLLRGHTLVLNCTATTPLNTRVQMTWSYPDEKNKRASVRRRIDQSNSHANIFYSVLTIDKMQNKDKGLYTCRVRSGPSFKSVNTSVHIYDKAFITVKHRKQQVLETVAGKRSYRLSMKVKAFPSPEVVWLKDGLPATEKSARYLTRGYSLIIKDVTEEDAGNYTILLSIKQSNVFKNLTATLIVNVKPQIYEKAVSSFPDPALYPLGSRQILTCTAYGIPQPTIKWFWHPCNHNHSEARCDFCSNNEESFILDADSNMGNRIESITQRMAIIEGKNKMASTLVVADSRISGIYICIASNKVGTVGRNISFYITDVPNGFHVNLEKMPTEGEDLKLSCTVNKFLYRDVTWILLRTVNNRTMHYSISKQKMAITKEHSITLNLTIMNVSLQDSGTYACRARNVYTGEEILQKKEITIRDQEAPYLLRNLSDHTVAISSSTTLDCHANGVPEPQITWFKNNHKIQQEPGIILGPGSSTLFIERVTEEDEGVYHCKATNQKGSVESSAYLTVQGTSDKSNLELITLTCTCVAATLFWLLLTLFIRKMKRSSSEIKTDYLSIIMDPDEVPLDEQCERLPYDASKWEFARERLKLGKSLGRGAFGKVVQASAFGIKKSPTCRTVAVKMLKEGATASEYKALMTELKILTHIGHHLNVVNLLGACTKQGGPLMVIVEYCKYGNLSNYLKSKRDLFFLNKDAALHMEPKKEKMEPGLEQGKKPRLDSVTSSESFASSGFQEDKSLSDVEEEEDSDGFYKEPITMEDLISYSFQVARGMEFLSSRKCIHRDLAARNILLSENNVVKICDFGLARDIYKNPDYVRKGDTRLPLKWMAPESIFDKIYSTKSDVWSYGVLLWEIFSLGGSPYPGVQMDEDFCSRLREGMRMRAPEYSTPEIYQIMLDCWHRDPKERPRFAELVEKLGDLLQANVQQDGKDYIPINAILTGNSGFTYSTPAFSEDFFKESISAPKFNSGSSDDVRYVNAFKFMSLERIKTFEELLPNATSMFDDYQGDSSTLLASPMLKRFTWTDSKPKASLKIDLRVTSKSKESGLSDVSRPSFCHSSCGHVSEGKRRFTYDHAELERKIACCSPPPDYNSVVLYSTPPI

[13] = molecular target: Sodium-dependent serotonin transporter (Homo sapiens) (UniProt P31645); conditions: Compound concentration 10.0 uM
[14] = molecular target: Dual specificity protein kinase CLK3 (Homo sapiens) (UniProt P49761); test: CLK3 SGC Tm panel (DSF); conditions: for ΔTm: Compound concentration 10.0 uM
Dual specificity protein kinase CLK3 (Homo sapiens), sequence (P49761 whole entry, looked up): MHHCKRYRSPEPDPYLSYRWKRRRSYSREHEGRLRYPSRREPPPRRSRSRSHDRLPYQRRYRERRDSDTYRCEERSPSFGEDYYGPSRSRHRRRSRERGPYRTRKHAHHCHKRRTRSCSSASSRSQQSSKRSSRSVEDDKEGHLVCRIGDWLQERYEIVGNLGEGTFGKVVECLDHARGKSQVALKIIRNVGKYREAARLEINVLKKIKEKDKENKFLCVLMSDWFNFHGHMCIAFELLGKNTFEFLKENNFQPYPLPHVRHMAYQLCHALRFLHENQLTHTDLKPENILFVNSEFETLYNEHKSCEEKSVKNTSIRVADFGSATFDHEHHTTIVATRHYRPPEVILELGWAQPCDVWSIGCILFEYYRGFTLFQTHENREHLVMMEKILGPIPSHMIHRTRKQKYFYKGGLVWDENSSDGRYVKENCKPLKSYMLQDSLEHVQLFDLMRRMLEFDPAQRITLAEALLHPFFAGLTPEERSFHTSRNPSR

Tyrosine-protein kinase ABL1 (Homo sapiens), sequence (P00519 whole entry): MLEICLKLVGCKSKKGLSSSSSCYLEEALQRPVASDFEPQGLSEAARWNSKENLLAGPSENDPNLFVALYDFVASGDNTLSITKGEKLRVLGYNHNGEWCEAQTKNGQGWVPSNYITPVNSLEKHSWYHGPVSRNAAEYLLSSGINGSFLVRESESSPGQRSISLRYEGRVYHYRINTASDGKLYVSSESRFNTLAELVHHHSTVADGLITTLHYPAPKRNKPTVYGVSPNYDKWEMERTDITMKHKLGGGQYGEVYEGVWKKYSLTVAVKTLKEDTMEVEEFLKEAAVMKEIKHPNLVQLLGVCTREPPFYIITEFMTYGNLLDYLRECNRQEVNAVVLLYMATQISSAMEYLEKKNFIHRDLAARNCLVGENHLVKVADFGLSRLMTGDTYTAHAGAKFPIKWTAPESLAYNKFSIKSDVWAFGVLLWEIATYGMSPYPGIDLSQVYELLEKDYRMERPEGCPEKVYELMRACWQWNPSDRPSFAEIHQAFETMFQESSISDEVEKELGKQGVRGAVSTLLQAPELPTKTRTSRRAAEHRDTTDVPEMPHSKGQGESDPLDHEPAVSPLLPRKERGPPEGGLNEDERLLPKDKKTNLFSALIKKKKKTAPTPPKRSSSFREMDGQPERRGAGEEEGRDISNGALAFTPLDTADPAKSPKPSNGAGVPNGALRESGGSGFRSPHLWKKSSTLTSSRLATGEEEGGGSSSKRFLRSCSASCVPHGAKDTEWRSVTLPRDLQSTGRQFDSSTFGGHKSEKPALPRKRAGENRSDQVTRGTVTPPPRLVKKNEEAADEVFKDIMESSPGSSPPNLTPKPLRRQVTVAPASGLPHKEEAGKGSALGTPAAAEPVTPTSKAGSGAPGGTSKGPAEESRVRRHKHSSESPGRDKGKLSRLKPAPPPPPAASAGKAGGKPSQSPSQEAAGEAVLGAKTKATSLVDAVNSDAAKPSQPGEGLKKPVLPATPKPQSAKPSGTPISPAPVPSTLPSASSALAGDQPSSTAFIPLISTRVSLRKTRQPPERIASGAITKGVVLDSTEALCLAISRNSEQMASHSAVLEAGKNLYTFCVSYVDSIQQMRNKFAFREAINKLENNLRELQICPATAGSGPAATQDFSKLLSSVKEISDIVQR

| SMILES | delta Tm Staurosporine positive control [1] | ΔTm [1] | delta Tm Staurosporine positive control [2] | ΔTm [2] | inhibition [3] [%] | delta Tm Staurosporine positive control [4] | ΔTm [4] | inhibition [5] [%] | delta Tm Staurosporine positive control [6] | ΔTm [6] | inhibition [7] [%] | IC50 [8] | delta Tm Staurosporine positive control [9] | ΔTm [9] | delta Tm Staurosporine positive control [10] | ΔTm [10] | inhibition [11] [%] | delta Tm Staurosporine positive control [12] | ΔTm [12] | inhibition [13] [%] | also measured |
| --- | --- | --- | --- | --- | --- | --- | --- | --- | --- | --- | --- | --- | --- | --- | --- | --- | --- | --- | --- | --- | --- |
| C[C@H](NC(=O)c1cn(C2(C#N)CC2)cn1)C(=O)Nc1nc(-c2cccc(-c3ccn(C)n3)c2)cs1 | 8.26 | 0.15 | -0.578 | -0.482 | 6.41 | 5 | 0.189 | 38.9 | 8.78 | 0.413 | 6.59 | 4.35 µM (not active) | 3.41 | -9.54 | 6.68 | 0.97 | -5.95 | 11.1 | -0.217 | 17.3 | delta Tm Staurosporine positive control [14]: 4.89; ΔTm [14]: -0.347 |
| COC[C@H](NC(=O)c1ccn(S(C)(=O)=O)c1)C(=O)Nc1nc(-c2cccc(-c3ccn(C)n3)c2)cs1 | 8.26 | 0.39 | -0.578 | -0.226 | 6.68 | 5 | 0.194 | 30.9 | 8.78 | 0.803 | 1.52 | 0.0298 µM (active) | 3.41 | 0.842 | 6.68 | 0.168 | 1.42 | 11.1 | -0.0497 | 27.5 | delta Tm Staurosporine positive control [14]: 4.89; ΔTm [14]: -0.362 |
